Laboratory results: patent US4482722A, “Ester of metronidazole with N,N-dimethylglycine and acid addition salt thereof” (A/S Dumex (Dumex Ltd.), priority 1982, dated 1984)
Several values for one entry are separate records, joined by “and”; a condition that tells them apart may be missing. Identical values can stand only once. Counter-ions that a name gives are not always drawn. Like-named read-outs stand apart in the source and are kept apart here. Each block holds one molecule with its values, some of them ahead of it.

Key:
[1] = Hydrolysis to metronidazole in human plasma (in vitro); type: in vitro ADME
[2] = Hydrolysis to metronidazole in 0.05M phosphate buffer pH 7.4; type: physicochemical; details: pH 7.4, 37° C, read-out: t1/2 in buffer
[3] = cited from earlier work
[4] = after parenteral administration; cited from earlier work
[5] = compound itself (uncleaved ester); cited from earlier work
[6] = Intravenous cross-over study in two beagle dogs, plasma concentrations of ester, metronidazole and metabolites; type: in vivo
Text: (§1) To test the assumption that the N,N-dimethylglycine ester would be a suitable water-soluble prodrug of metronidazole for parenteral administration, metronidazole and its N,N-dimethylglycine ester were given intravenously to two beagle dogs in a cross-over study.

[7] = Solubility in water / aqueous solution; type: physicochemical
[8] = pH of aqueous solutions of the hydrochloride; type: physicochemical; details: 1-20% w/v aqueous solutions
[9] = Initial rate of formation of metronidazole and time to begin precipitation, calculated at 23° C (Table 2); type: physicochemical
Experimental: Since t10% for the ester is 73 h at 23° C., the results given in Table 2 indicate that the stability of aqueous solutions of the prodrug ester will only be limited by the potential precipitation of metronidazole formed upon hydrolysis in those cases where the concentration of the ester in aqueous solutions exceeds about 20%.

[10] = Local tolerance after intravenous injection in dogs; type: in vivo, beagle dogs
Text: as §1

[11] = Effect of temperature on rate of hydrolysis in acetate buffer pH 4.4 (Arrhenius plot); type: physicochemical
Experimental: The effect of temperature on the rate of hydrolysis of metronidazole N,N-dimethylglycinate was studied in 0.05M acetate buffer of pH 4.4 over the temperature range 23°-50° C.
The results obtained are illustrated in FIG. 1 of the drawings. […] Based on the slope of said plot an activation energy of 17.7 kcal mole^-1 was calculated. Based on said Arrhenius type plot the stability of aqueous solutions of the ester may be predicted at various temperatures.

[12] = Hydrolysis in 80% dog plasma in vitro; type: in vitro ADME; details: 80% plasma, 37° C
Text: As noted below the rapid and quantitative formation of metronidazole seen after administration of the ester indicate, however, that the rate of ester disappearance is solely or predominantly due to the hydrolytic conversion.

[13] = published data; cited from earlier work
[14] = compared with metronidazole at the same dosage level; cited from earlier work
[15] = 80% plasma, 80% human plasma, pH 7.4, 37° C, read-out: t1/2 in human plasma

half-life [1, 15]: 207 min
half-life [2]: 315 min
Structure (SMILES): Cc1ncc([N+](=O)[O-])n1CCOC(=O)CCN

half-life [1, 15]: 46 min
half-life [2]: 52 min
Structure (SMILES): Cc1ncc([N+](=O)[O-])n1CCOC(=O)CCN(C)C

half-life [1, 15]: 334 min
half-life [2]: 580 min
Structure (SMILES): Cc1ncc([N+](=O)[O-])n1CCOC(=O)CCCN(C)C

Structure (SMILES): Cc1ncc([N+](=O)[O-])n1CCOC(=O)CCC(=O)O
solubility in water (in words) ([3]; prior art esters): has the required solubility in water
cleavage of the ester in blood serum (in words) [4]: very slow
microbiological activity (in words) [5]: microbiologically inactive

Structure (SMILES): Cc1ncc([N+](=O)[O-])n1CC(=O)O [2-Methyl-5-nitroimidazole-1-aceticacid]
plasma concentration of metabolite (in words) ([6]; dogs, i.v. ester hydrochloride (30 mg/kg metronidazole equivalents) or metronidazole (10 mg/kg)): could not be detected in measurable concentrations

half-life [1, 15]: 523 min
half-life [2]: 1720 min
Structure (SMILES): Cc1ncc([N+](=O)[O-])n1CCOC(=O)CN1CCN(C)CC1 [4-Methyl-1-piperazinoacetate]

half-life [1, 15]: 41 min
half-life [2]: 115 min
Structure (SMILES): Cc1ncc([N+](=O)[O-])n1CCOC(=O)CN [Glycinate]

Structure (SMILES): Cc1ncc([N+](=O)[O-])n1CCOC(=O)CN(C)C [Metronidazole N,N-dimethylglycinate hydrochloride]
solubility ([7]; water, 20° C, read-out: solubility in water): > 500000 µg/mL and > 1.7e+06 µM
pH of the 1-20% w/v solutions [8]: 4.4-4.6
(d[M]/dt)i, apparent zero-order initial rate of formation of metronidazole ([9]; 50 mg ml^-1 hydrochloride): 0.042 mg/mL/h
tpt, time for metronidazole to begin precipitation ([9]; 50 mg ml^-1 hydrochloride): 238 h
(d[M]/dt)i, apparent zero-order initial rate of formation of metronidazole ([9]; 100 mg ml^-1 hydrochloride): 0.084 mg/mL/h
tpt, time for metronidazole to begin precipitation ([9]; 100 mg ml^-1 hydrochloride): 119 h
(d[M]/dt)i, apparent zero-order initial rate of formation of metronidazole ([9]; 200 mg ml^-1 hydrochloride): 0.168 mg/mL/h
tpt, time for metronidazole to begin precipitation ([9]; 200 mg ml^-1 hydrochloride): 60 h
(d[M]/dt)i, apparent zero-order initial rate of formation of metronidazole ([9]; 300 mg ml^-1 hydrochloride): 0.252 mg/mL/h
tpt, time for metronidazole to begin precipitation ([9]; 300 mg ml^-1 hydrochloride): 40 h
conversion to metronidazole (in words) ([6]; i.v., dogs): rapidly and completely converted to metronidazole
signs of pain or local toxicity [10]: No signs of pain or local toxicity

half-life [1, 15]: 8 min
half-life [2]: 90 min
Structure (SMILES): CCCNCC(=O)OCCn1c([N+](=O)[O-])cnc1C [N--Propylglycinate]

Structure (SMILES): Cc1ncc([N+](=O)[O-])n1CCOC(=O)CN(C)C [metronidazole N,N-dimethylglycinate]
half-life [1, 15]: 12 min
half-life ([1]; human plasma or blood, in vitro, read-out: half-life of hydrolysis in human plasma or blood): 9 to 12 min
half-life [2]: 250 min
activation energy of hydrolysis ([11]; 0.05M acetate buffer pH 4.4, 23°-50° C, Arrhenius plot): 17.7 kcal/mol
t10% (time in which 10% of the ester is degraded) ([11]; pH 4.4, 4° C): 576 h
t10% (time in which 10% of the ester is degraded) ([11]; pH 4.4, 15° C): 166 h
t10% (time in which 10% of the ester is degraded) ([11]; pH 4.4, 23° C): 73 h
half-life of disappearance of the ester in dogs ([6]; i.v. hydrochloride, 30 mg/kg metronidazole equivalents, one value per dog, 30 mg/kg): approximately 3 min and ~7 min
hydrolysis in the dogs (in words) ([6]; i.v., 30 mg/kg metronidazole equivalents): hydrolyzed rapidly
pattern of metabolite formation (in words) ([6]; i.v., dogs, compared with injection of metronidazole): quite similar to that observed after injection of metronidazole
half-life [12]: 25 min

solubility ([7]; aqueous solution, pH>3, 25° C, read-out: solubility in aqueous solutions): 10000 µg/mL and 58000 µM
Structure (SMILES): Cc1ncc([N+](=O)[O-])n1CCO [metronidazole]
solubility in an aqueous solution ([3]; background statement): about 100 mg/10 ml
solubility augmented by solubilizers ([3]; with gentisic acid (1:4) or with co-solvents (prior art)): 500-650 mg/10 ml

Structure (SMILES): Cc1ncc([N+](=O)[O-])n1CCOP(=O)(O)O [phosphate ester]
rate of conversion to metronidazole in vivo (in words) [13]: rather slow rate of conversion to metronidazole in vivo
bioavailability of metronidazole to rats (in words) [14]: significantly lower than that obtained with metronidazole at the same dosage level
